Reference: US20240336574A1 (LATIGO BIOTHERAPEUTICS, INC., priority 2021, published 2024)
Like-named read-outs stand apart in the source and are kept apart here.

Biological target: T1, recombinant human NaV1.8 stably transfected HEK cells (Homo sapiens, UniProt Q9Y5Y9)
T1 construct: expressed in transfected cells; host or cells: HEK cells, stably transfected
Test: Compound profiling on NaV1.8, human NaV1.8 cell line, SyncroPatch384PE automated patch clamp assay (Example 115, third set of compounds, Table 27)
Assay type: cell-based
Conditions: human NaV1.8 HEK cells, Table 27 (third set of compounds)
Procedure: Compound Profiling on NaV1.8 Human NaV1.8 Cell Line SyncroPatch384PE Assay
Compounds were tested on recombinant human NaV1.8 stably transfected HEK cells using the SyncroPatch384PE system, an automated patch clamp device. Cells were cultured at 37° C./5% CO2 in DMEM medium supplemented with GlutaMAX I, NEAA 1%, FBS 10% and seeded in T175 flasks. Cells were cultured at 30° C. one day prior to recording sodium currents. On the day of the recordings, cells were detached with 0.05% Trypsin-EDTA, resuspended in serum free DMEM medium and placed into the SyncroPatch384PE 6° C. pre-cooled cell hotel and shaken at 200 rpm. Intracellular solution (IC) contained, in mM: 10, CsCl; 110, CsF; 20, EGTA; 10, HEPES. Extracellular solution (EC) contained, in mM: 140, NaCl; 4, KCl; 5, Glucose; 10, HEPES; 2, CaCl2; 1, MgCl2. Washing solution contained, in mM: 40, NMDG; 100, NaCl; 4, KCl; 10, Glucose; 10, HEPES; 5, CaCl2; 1, MgCl2.
Compounds were tested in quadruplicates in 0.1% DMSO and 0.030% Pluronic Acid. Compounds were diluted 1:3.33 in EC solution to create a 10-point concentration response curve, spanning a final concentration range from 10-0.0002 μM in the assay plate. Compounds with low nM potency were retested using a lower concentration range (1-0.00002 μM). Each plate contained tetracaine and another tool compound as positive controls. Up to 7 compounds were tested on one plate. 150 μM tetracaine and 0.1% DMSO were used as high and low controls, respectively.
Whole cell patch clamp recordings were conducted according to Nanion's standard procedure for SyncroPatch384PE®. Cells were held at a holding potential of −120 mV. A depolarization step to 10 mV for 30 ms was applied (P1 measurement), followed by a hyperpolarization step to −100 mV for 100 ms. An inactivation step at −40 mV for 10 sec was applied before stepping to −100 mV for 20 ms, followed by a step to 10 mV for 30 ms (P2 measurement) and then back to −100 mV for 30 ms. Sweep interval was 15 sec with a sampling rate of 10 kHz. Following establishment of the whole-cell configuration in EC, two washing steps with reference buffer were performed to stabilize the baseline. Compounds were then applied by the SynchroPatch into each well and the current was recorded for five minutes in EC, followed by application of tetracaine to achieve full block at the end of the experiment. The potency of the compounds was assessed on two read-outs, resting state block (P1 measurement) or inactivated state block (P2 measurement) to obtain IC50 values. Values were normalized to high (tetracaine) and low (DMSO) controls.

[1] = inactivated state block (P2 measurement), read-out: P2 IC50
[2] = resting state block (P1 measurement), read-out: P1 IC50

T1 sequence (Q9Y5Y9 whole entry): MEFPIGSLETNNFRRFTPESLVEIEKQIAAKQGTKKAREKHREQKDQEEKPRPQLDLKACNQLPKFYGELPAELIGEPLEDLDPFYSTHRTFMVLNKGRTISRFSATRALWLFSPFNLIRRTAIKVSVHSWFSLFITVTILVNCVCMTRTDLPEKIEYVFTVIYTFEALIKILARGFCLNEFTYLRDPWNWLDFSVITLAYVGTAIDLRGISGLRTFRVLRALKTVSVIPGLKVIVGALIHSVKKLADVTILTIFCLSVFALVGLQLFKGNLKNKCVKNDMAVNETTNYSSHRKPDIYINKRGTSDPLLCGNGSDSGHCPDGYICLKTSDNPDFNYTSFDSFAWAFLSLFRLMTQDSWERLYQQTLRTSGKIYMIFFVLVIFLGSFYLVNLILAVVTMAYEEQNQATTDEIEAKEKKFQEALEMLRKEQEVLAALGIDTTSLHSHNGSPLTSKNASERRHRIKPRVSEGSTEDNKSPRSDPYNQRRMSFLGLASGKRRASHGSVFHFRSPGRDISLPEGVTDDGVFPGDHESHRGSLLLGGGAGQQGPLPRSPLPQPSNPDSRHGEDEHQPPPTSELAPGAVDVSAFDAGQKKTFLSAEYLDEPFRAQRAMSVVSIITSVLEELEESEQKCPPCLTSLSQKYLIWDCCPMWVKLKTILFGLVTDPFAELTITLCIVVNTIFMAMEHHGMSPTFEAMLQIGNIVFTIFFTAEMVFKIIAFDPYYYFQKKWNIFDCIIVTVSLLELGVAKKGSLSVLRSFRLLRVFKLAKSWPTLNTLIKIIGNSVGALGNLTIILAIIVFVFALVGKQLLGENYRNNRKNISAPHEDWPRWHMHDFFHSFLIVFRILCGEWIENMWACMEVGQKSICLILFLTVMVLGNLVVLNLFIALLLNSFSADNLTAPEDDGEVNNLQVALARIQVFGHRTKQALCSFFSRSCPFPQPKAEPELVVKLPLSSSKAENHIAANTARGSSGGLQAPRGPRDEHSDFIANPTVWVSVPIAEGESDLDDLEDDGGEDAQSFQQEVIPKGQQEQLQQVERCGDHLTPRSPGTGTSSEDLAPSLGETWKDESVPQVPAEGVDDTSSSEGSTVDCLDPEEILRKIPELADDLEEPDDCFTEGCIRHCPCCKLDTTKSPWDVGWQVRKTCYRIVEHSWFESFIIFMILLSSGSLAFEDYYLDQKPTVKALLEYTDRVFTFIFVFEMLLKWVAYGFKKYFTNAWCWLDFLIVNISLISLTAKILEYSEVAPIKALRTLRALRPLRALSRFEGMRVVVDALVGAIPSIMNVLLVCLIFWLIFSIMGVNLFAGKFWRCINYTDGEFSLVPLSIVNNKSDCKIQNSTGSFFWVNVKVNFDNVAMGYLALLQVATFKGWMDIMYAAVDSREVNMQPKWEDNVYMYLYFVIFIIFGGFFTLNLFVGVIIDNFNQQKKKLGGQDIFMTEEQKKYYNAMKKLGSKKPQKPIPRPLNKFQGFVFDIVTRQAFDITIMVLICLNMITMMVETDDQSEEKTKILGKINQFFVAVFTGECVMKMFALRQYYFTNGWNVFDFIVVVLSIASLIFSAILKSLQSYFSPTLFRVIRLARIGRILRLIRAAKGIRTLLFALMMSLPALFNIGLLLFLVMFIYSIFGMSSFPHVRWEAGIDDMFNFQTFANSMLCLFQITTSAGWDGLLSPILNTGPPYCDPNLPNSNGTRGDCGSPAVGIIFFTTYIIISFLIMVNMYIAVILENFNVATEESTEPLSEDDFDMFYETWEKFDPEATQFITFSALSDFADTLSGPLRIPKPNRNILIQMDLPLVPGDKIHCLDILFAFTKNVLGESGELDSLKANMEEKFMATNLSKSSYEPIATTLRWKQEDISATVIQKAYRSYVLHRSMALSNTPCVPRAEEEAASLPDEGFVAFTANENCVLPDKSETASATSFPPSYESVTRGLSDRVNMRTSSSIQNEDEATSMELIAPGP

Row | Structure (SMILES) | IC50 [1] [µM] | IC50 [2] [µM]
1 | Cc1cc(Br)ccc1Oc1nnc(C(F)(F)F)cc1C(=O)Nc1cccc(S(C)(=O)=O)c1 [Compound 82] | ≤ 0.2 | ≤ 0.2
2 | COc1cc(NC(=O)c2cc(C(F)(F)F)nnc2Oc2ccc(F)cc2Cl)ccn1 [Compound 67] | > 5 | > 5
3 | COc1cc(F)ccc1Oc1nnc(C(F)(F)F)cc1C(=O)Nc1ccn2cnnc2c1 [Compound 21] | 0.501 to 1 | 0.501 to 1
4 | CNC(=O)c1cccc(NC(=O)c2cc(C(F)(F)F)nnc2Oc2ccc(F)cc2OC)c1 [Compound 129, 3-(4-Fluoro-2-methoxyphenoxy)-N-(3-(methylcarbamoyl)phenyl)-6-(trifluoromethyl)pyridazine-4-carboxamide] | 0.201 to 0.5 | 0.201 to 0.5
5 | Cc1cc(F)ccc1Oc1nnc(C(F)(F)F)cc1C(=O)Nc1cccc(-n2cnnc2)c1 [Compound 12] | 1 to 5 | 1 to 5
6 | Cc1ccc(F)cc1Oc1nnc(C(F)(F)F)cc1C(=O)Nc1cccc(S(N)(=O)=O)c1 [Compound 119, 3-(5-Fluoro-2-methylphenoxy)-N-(3-sulfamoylphenyl)-6-(trifluoromethyl)pyridazine-4-carboxamide] | 0.501 to 1 | 0.501 to 1
7 | COc1cc(F)ccc1Oc1nnc(C(F)(F)F)cc1C(=O)Nc1cccc(C(N)=O)c1 [Compound 26] | ≤ 0.2 | ≤ 0.2
8 | COc1cc(F)ccc1Oc1nnc(C(F)(F)F)cc1C(=O)Nc1cncc(C(N)=O)n1 [Compound 128, N-(6-Carbamoylpyrazin-2-yl)-3-(4-fluoro-2-methoxyphenoxy)-6-(trifluoromethyl)pyridazine-4-carboxamide] | > 5 | > 5
9 | Cc1cc(OC(F)(F)F)ccc1Oc1nnc(C(F)(F)F)cc1C(=O)Nc1cccc(S(N)(=O)=O)c1 [Compound 47] | ≤ 0.2 | ≤ 0.2
10 | Cc1cc(F)ccc1Oc1nnc(C(F)(F)F)cc1C(=O)Nc1cccc2nncn12 [Compound 134, 3-(4-Fluoro-2-methyl-phenoxy)-N-([1,2,4]triazolo[4,3-a]pyridin-5-yl)-6-(trifluoromethyl)pyridazine-4-carboxamide] | > 5 | > 5
11 | Cc1c[nH]c(=O)cc1NC(=O)c1cc(C(F)(F)F)nnc1Oc1ccc(F)cc1C [Compound 90, 3-(4-Fluoro-2-methylphenoxy)-N-(5-methyl-2-oxo-1,2-dihydropyridin-4-yl)-6-(trifluoromethyl)pyridazine-4-carboxamide] | > 5 | > 5
12 | Cc1cc(C#N)ccc1Oc1nnc(C(F)(F)F)cc1C(=O)Nc1cccc(S(N)(=O)=O)c1 [Compound 123, 3-(4-Cyano-2-methylphenoxy)-N-(3-sulfamoylphenyl)-6-(trifluoromethyl)pyridazine-4-carboxamide] | ≤ 0.2 | ≤ 0.2
13 | Cc1cc(-c2cnoc2)ccc1Oc1nnc(C(F)(F)F)cc1C(=O)Nc1cccc(S(C)(=O)=O)c1 [Compound 132, N-(3-Methanesulfonylphenyl)-3-[2-methyl-4-(1,2-oxazol-4-yl)phenoxy]-6-(trifluoromethyl)pyridazine-4-carboxamide] | ≤ 0.2 | 0.201 to 0.5
14 | Cc1cc(F)ccc1Oc1nnc(C(F)(F)F)cc1C(=O)Nc1ccc(C)c(S(C)(=N)=O)c1 (centres unmarked) [Compound 109, 3-(4-Fluoro-2-methylphenoxy)-N-(4-methyl-3-(S-methylsulfonimidoyl)phenyl)-6-(trifluoromethyl)pyridazine-4-carboxamide] | 0.201 to 0.5 | 0.201 to 0.5
15 | COc1cc(F)ccc1Oc1nnc(C(F)(F)F)cc1C(=O)Nc1cncc(S(C)(=O)=O)c1 [Compound 16] | 1 to 5 | 1 to 5
16 | COc1cc(F)ccc1Oc1nnc(C)cc1C(=O)Nc1cccc(S(C)(=N)=O)c1 (centres unmarked) [Compound 94, 3-(4-Fluoro-2-methoxyphenoxy)-6-methyl-N-(3-(S-methylsulfonimidoyl)phenyl)pyridazine-4-carboxamide] | > 5 | 1 to 5
17 | COC(=O)c1cncc(NC(=O)c2cc(C(F)(F)F)nnc2Oc2ccc(F)cc2OC)n1 [Compound 46] | > 5 | > 5

Row | Structure (SMILES) | IC50 [1] [µM] | IC50 [2] [µM]
18 | COc1cc(C#N)ccc1Oc1nnc(C(F)(F)F)cc1C(=O)Nc1cccc(S(N)(=O)=O)c1 [Compound 121, 3-(4-Cyano-2-methoxyphenoxy)-N-(3-sulfamoylphenyl)-6-(trifluoromethyl)pyridazine-4-carboxamide] | ≤ 0.2 | ≤ 0.2
19 | COc1cc(F)ccc1Oc1nnc(C(F)(F)F)cc1C(=O)Nc1cccc(-c2nncn2C)c1 [Compound 38] | 1 to 5 | 1 to 5
20 | COc1cc(F)ccc1Oc1nnc(C(F)(F)F)cc1C(=O)Nc1cccc(N2CCOC2=O)c1 [Compound 57] | > 5 | > 5
21 | CS(=O)(=O)c1cccc(NC(=O)c2cc(C(F)(F)F)nnc2Oc2cccc(OC(F)(F)F)c2)c1 [Compound 52] | > 5 | > 5
22 | Cc1cc(F)ccc1Oc1nnc(C(F)(F)F)cc1C(=O)Nc1cccc([S@](C)(=N)=O)c1 [Compound 102, (R)-3-(4-fluoro-2-methylphenoxy)-N-(3-(S-methylsulfonimidoyl)phenyl)-6-(trifluoromethyl)pyridazine-4-carboxamide] | 0.201 to 0.5 | 0.501 to 1
23 | Cc1cc(F)ccc1Oc1nnc(C(F)(F)F)cc1C(=O)Nc1cccc(CS(C)(=O)=O)c1 [Compound 10] | > 5 | > 5
24 | Cc1cc(F)ccc1Oc1nnc(C(F)(F)F)cc1C(=O)Nc1ccc(S(C)(=O)=O)cc1 [Compound 40] | > 5 | 1 to 5
25 | COc1cc(F)ccc1Oc1nnc(C(F)(F)F)cc1C(=O)Nc1ccc2c(c1)S(=O)(=O)NC2=O [Compound 43] | 1 to 5 | 0.501 to 1
26 | COc1cc(F)ccc1Oc1nnc(C(F)(F)F)cc1C(=O)Nc1cccc(NS(C)(=O)=O)c1 [Compound 18] | 0.501 to 1 | 1 to 5
27 | COc1cc(F)ccc1Oc1nnc(C)cc1C(=O)Nc1cccc([S+](C)[O-])c1 (centres unmarked) [Compound 105] | > 5 | > 5
28 | COc1cc(F)ccc1Oc1nnc(C(F)(F)F)cc1C(=O)Nc1ccc(C)c(S(C)(=O)=O)c1 [Compound 107, 3-(4-Fluoro-2-methoxyphenoxy)-N-(4-methyl-3-(methylsulfonyl)phenyl)-6-(trifluoromethyl)pyridazine-4-carboxamide] | ≤ 0.2 | ≤ 0.2
29 | COc1cc(F)ccc1Oc1nnc(C(F)(F)F)cc1C(=O)Nc1cccc(S(C)(=O)=O)n1 [Compound 15] | 1 to 5 | > 5
30 | CCOc1cc(F)ccc1Oc1nnc(C)cc1C(=O)Nc1cccc(S(C)(=O)=O)c1 [Compound 108] | > 5 | > 5
31 | O=C(Nc1ccnnc1)c1cc(C(F)(F)F)nnc1Oc1ccc(F)cc1Cl [Compound 63] | 0.501 to 1 | 0.201 to 0.5
32 | Cc1cc(F)ccc1Oc1nnc(C(F)(F)F)cc1C(=O)Nc1cccc(NS(C)(=O)=O)c1 [Compound 8] | 1 to 5 | 1 to 5
33 | Cc1cc(F)ccc1Oc1nnc(C(F)(F)F)cc1C(=O)Nc1cccc(-c2cc[nH]n2)c1 [Compound 85] | > 5 | > 5
34 | Cc1cc(F)ccc1Oc1nnc(C(F)(F)F)cc1C(=O)Nc1ccc(=O)[nH]c1 [Compound 41] | > 5 | 1 to 5
